Publication PMC9628870 (Journal of Microbiology and Biotechnology, 2022)

Biological target: T1, Burkholderia pseudomallei L-asparaginase (Burkholderia pseudomallei, UniProt Q63UZ6)
T1 construct: gene ansB
Conditions: 10 mM substrate, 50 mM Tris-HCl pH 8.6, 37 °C, 10 min

T1 sequence (Q63UZ6 1-347 limits assumed): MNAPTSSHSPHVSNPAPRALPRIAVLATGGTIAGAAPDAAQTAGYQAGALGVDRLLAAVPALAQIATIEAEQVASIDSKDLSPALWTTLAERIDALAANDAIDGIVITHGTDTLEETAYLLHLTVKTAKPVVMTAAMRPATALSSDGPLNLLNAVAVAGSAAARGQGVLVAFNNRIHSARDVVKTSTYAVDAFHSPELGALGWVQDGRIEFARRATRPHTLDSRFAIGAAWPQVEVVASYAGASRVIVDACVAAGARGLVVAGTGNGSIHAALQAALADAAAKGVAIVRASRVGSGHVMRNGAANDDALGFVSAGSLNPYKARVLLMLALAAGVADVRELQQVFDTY

For `NC(=O)C[C@H](N)C(=O)O` [L-asparagine], the “ammonia release by Nessler's reagent” value was “the purified recombinant enzyme displayed the maximum activity and specificity towards the reaction substrate L-asparagine”.
